Measured values published in patent US20240189285A1, “COMPOSITION AND METHOD FOR ENHANCING MITOCHONDRIAL BIOGENESIS AND ACTIVATING PGC-1A” (NANJING NUTRABUILDING BIO-TECH CO., LTD., priority 2021, published 2024).

Key:
Assay type in all cases: cell-based
PGC-1α = PGC-1α protein expression by Western blot in target cells
Method: (§1) Target cells (endothelial cells, C2C12 skeletal muscle cells, etc.) are obtained according to conventional methods in the art.
(§2) The target cells (endothelial cells, C2C12 skeletal muscle cells, etc.) are divided into groups A, B, C and D. B and D group cells were cultured with 50 μM L-Ergothioneine for 12 hours, and A and C groups were not cultured with Ergothioneine but only with the usual nutrient solution for 12 hours. Then a certain concentration of H2O2 was used to cause C and D group cells damage, no H2O2 was used on A and B groups. Then PGC-1α protein expression and Sirt1 protein level were analyzed by Western blot.

[1] = system: target cells (endothelial cells, C2C12 skeletal muscle cells, etc.); experiment: Mitochondrial biogenesis in vitro: mitochondrial mass (flow cytometry, fluorescent microscopy) and mtDNA copy number (quantitative PCR)
Method: as §1
as §2, with “were” for “are”, “hours.” for “hours, and”, “Mitochondrial biogenesis was measured by quantifying both mitochondrial mass” for “Then PGC-1α protein expression”, “mitochondrial DNA (mtDNA) contents. Mitochondrial mass was measured by flow cytometry and fluorescent microscopy, mtDNA copy number was” for “Sirt1 protein level were”, “quantitative PCR.” for “Western blot.”

Sirt1 = Sirt1 protein level by Western blot in target cells
Method: as §1, §2

[2] = group B: 50 μM L-Ergothioneine for 12 hours, no H2O2, untreated group A = 100

## C[N+](C)(C)[C@@H](Cc1c[nH]c(=S)[nH]1)C(=O)[O-] [L-Ergothioneine]
PGC-1α; group B: 50 μM L-Ergothioneine for 12 hours, no H2O2, untreated group A about 0.0046
  PGC-1α level (Western blot): ~0.005
PGC-1α; group D: 50 μM L-Ergothioneine for 12 hours, then H2O2 damage, H2O2-only group C about 0.0036
  PGC-1α level (Western blot): ~0.0043
[1]; [2]
  Relative mitochondrial mass: 112%
  Relative mtDNA content: 118%
[1]; group D: 50 μM L-Ergothioneine for 12 hours, then H2O2 damage, H2O2-only group C = 78
  Relative mitochondrial mass: 90%
[1]; group D: 50 μM L-Ergothioneine for 12 hours, then H2O2 damage, H2O2-only group C = 89
  Relative mtDNA content: 93%
Sirt1; group B: 50 μM L-Ergothioneine for 12 hours, no H2O2, untreated group A about 0.79
  Sirt1 level (Western blot): ~0.85
Sirt1; group D: 50 μM L-Ergothioneine for 12 hours, then H2O2 damage, H2O2-only group C about 0.65
  Sirt1 level (Western blot): ~0.75
